Results on 22 molecules are retold here after ChEMBL document CHEMBL4811242, “Mechanistic selectivity investigation and 2D-QSAR study of some new antiproliferative pyrazoles and pyrazolopyridines as potential CDK2 inhibitors” (Eur J Med Chem, 2021).

Molecules are shown by their SMILES. pIC50, pKi: −log10 of the molar value.

The nature of data set [1]: Cytotoxicity against human THLE2 cells assessed as reduction in cell viability by MTT assay. The data set is classed as cell-based, THLE-2. A general note: Formazan colour is commonly taken as a measure of viable cells.
For data set [2], the system named is MCF7. Description: Antiproliferative activity against human MCF7 cells assessed as inhibition of cell growth after 48 hrs by MTT assay. The settings on record: MCF7, 48 h. The data set is classed as functional, cell-based.
The target in a further data set is CDK2/Cyclin A2 (Homo sapiens, UniProt P24941). Description: Inhibition of CDK2/Cyclin A2 (unknown origin) after 10 mins by ADP-Glo reagent based assay. Type of data set: protein-complex assay. (In general: ADP-Glo turns the ADP formed in a reaction into a luminescent signal.)
Data set [3] in a line: Selectivity index, ratio of CC50 for human THLE2 cells to IC50 for human HepG2 cells. The data set is classed as toxicity. The settings on record: THLE2 cells and HepG2 cells, read-out: Ratio CC50/IC50.
The next data set deals with HepG2. Kind of data set: Antiproliferative activity against human HepG2 cells assessed as inhibition of cell growth after 48 hrs by MTT assay. Type of data set: functional, cell-based. The settings on record: HepG2, 48 h.
Data set [4] is described as follows: Cytotoxicity against human MCF10A cells assessed as reduction in cell viability by MTT assay. The data set is classed as cell-based, MCF-10A.
In data set [5] the test system is MCF7. Kind of data set: Induction of cell cycle arrest in human MCF7 cells assessed as accumulation at G0/G1 phase at IC50 after 48 hrs by propidium iodide staining based Flow cytometric analysis (reference value: 55.71%). The data set is classed as functional. A general note: In flow cytometry, cells or beads pass a laser one at a time.
Data set [6] deals with MCF7. Description: Induction of apoptosis in human MCF7 cells assessed as caspase-9 concentration at IC50 by ELISA (reference value: 2.018 +/- 0.14 ng/ml). The data set is classed as functional.
Data set [7] relates to MCF7. Description: Induction of cell cycle arrest in human MCF7 cells assessed as accumulation at S phase at IC50 after 48 hrs by propidium iodide staining based Flow cytometric analysis (reference value: 39.15%). Type of data set: functional.
Data set [8] has as its system MCF7. Description: Induction of cell cycle arrest in human MCF7 cells assessed as accumulation at G2/M phase at IC50 after 48 hrs by propidium iodide staining based Flow cytometric analysis (reference value: […]%). The data set is classed as functional.
Data set [9] has as its target Cyclin-dependent kinase 7/ cyclin H (Homo sapiens, UniProt P50613). Kind of data set: Inhibition of CDK7/cyclin H (unknown origin). The data set is classed as protein-complex assay.
In data set [10] the target is Cyclin-dependent kinase 4/cyclin D1 (Homo sapiens, UniProt P11802). Kind of data set: Inhibition of CDK4/cyclin D1 (unknown origin). Type of data set: protein-complex assay.
Cyclin-dependent kinase 4/cyclin D1, sequence (P11802 whole entry): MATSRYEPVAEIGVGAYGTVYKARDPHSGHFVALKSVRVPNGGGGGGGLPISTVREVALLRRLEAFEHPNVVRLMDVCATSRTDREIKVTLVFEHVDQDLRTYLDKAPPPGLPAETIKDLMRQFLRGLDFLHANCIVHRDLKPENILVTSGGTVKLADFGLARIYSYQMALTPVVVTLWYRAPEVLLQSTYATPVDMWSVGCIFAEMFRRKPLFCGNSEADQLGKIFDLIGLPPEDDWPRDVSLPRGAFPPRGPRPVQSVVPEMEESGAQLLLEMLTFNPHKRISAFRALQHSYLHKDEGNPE
Cyclin-dependent kinase 4/cyclin D1, sequence (P24385 whole entry, further chain): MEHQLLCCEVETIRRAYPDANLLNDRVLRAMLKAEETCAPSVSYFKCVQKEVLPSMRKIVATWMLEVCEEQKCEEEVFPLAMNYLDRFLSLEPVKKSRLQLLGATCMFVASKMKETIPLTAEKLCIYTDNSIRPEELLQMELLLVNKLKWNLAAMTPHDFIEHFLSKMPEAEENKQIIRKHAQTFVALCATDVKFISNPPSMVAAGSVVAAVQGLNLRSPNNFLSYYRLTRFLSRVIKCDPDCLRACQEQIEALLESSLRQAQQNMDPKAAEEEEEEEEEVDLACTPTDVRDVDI
For data set [11], the system named is MCF7. Description: Induction of apoptosis in human MCF7 cells assessed as late apoptotic cells at IC50 after 48 hrs by Annexin V-FITC/propidium iodide staining based flow cytometric analysis (reference value: 0.28 %). Type of data set: functional.
Data set [12] concerns MCF7. Description: Induction of apoptosis in human MCF7 cells assessed as early apoptotic cells at IC50 after 48 hrs by Annexin V-FITC/propidium iodide staining based flow cytometric analysis (reference value: 0.57 %). The data set is classed as functional.
The subject of data set [13] is MCF7. Description: Induction of apoptosis in human MCF7 cells assessed as total apoptotic cells at IC50 after 48 hrs by Annexin V-FITC/propidium iodide staining based flow cytometric analysis (reference value: 1.84 %). The data set is classed as functional.
Data set [14] has as its system MCF7. Description: Induction of cell cycle arrest in human MCF7 cells assessed as accumulation at pre-G1 phase at IC50 after 48 hrs by propidium iodide staining based Flow cytometric analysis (reference value: 1.84%). Type of data set: functional.
For data set [15], the target named is Cyclin-dependent kinase 1/cyclin B1 (Homo sapiens, UniProt P06493). Description: Inhibition of CDK1/cyclin B (unknown origin). The data set is classed as protein-complex assay.
Cyclin-dependent kinase 1/cyclin B1, sequence (P06493 whole entry): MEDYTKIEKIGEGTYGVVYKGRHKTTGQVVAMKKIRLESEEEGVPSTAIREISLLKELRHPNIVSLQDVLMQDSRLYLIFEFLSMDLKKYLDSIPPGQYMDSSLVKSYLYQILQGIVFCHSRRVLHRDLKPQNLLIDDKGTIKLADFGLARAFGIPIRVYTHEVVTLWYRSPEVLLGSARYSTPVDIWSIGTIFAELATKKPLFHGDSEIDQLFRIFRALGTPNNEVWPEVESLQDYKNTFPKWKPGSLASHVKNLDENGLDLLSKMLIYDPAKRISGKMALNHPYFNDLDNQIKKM
Cyclin-dependent kinase 1/cyclin B1, sequence (P14635 whole entry, further chain): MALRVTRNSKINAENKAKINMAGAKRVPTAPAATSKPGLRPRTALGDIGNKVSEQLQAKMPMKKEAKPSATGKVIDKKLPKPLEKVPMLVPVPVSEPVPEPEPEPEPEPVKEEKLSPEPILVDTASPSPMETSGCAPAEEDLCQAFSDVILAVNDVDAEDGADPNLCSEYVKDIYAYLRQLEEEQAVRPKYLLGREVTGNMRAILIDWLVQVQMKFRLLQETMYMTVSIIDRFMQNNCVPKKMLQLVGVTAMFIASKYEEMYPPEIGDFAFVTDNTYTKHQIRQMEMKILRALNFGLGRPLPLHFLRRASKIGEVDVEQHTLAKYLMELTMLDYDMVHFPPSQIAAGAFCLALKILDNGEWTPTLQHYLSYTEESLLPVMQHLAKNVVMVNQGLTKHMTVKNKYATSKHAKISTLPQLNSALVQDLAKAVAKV
Data set [16] relates to MCF7. Kind of data set: Induction of apoptosis in human MCF7 cells assessed as fold increase in caspase-9 concentration at IC50 by ELISA. Type of data set: functional.
The nature of data set [17]: Selectivity index, ratio of CC50 for human MCF10A cells to IC50 for human MCF7 cells. Type of data set: toxicity. The settings on record: MCF10A cells and MCF7 cells, read-out: Ratio CC50/IC50.

Cyclin-dependent kinase 7/ cyclin H, sequence (P51946 whole entry): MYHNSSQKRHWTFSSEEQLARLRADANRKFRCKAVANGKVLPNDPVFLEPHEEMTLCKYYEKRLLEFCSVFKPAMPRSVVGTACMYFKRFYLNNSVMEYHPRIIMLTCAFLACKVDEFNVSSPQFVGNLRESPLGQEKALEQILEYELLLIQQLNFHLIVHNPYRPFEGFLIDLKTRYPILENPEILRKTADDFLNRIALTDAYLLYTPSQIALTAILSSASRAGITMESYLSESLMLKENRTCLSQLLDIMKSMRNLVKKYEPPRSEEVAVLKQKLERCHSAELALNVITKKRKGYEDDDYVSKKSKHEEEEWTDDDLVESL
Cyclin-dependent kinase 7/ cyclin H, sequence (P50613 whole entry): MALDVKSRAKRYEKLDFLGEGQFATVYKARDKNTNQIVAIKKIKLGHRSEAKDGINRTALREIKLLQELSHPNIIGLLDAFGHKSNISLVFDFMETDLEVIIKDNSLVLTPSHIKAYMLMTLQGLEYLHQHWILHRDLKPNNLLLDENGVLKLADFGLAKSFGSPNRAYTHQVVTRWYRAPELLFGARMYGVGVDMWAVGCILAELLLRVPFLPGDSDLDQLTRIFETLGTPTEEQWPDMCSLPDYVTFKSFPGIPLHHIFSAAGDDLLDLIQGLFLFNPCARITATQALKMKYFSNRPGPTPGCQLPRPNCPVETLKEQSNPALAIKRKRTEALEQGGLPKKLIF

As a reminder, the CC50 is the concentration giving 50% cytotoxicity. As usually defined, the pIC50 is the negative decadic logarithm of the IC50, by convention in mol/L. Turning to `O=C(C=CNc1cc(-c2ccccc2)nn1-c1ccccc1)c1ccccc1`, the cytotoxic concentration (CC50) in data set [1] was 53.4 µM. Also, the pIC50 in the data set on MCF7 [2] was 5.02; against CDK2/Cyclin A2 it was 6.50; in the data set with HepG2 it was 5.58. Further, the selectivity ratio in data set [3] was found to be 20.1.

On to `N#Cc1c(-c2ccc(Cl)cc2)nc2c(c(-c3ccccc3)nn2-c2ccccc2)c1-c1ccc(N2CCCCC2)cc1`, for which the CC50 in [1] was determined as 12.5 µM. Further, the pIC50 is 4.97 with MCF7 [2], 6.71 at CDK2/Cyclin A2 and 5.49 in the data set with HepG2. In addition, the selectivity ratio in data set [3] came out at 3.89.

Regarding `CN1CCN(c2ccc(-c3c(C#N)c(-c4ccccc4)nc4c3c(-c3ccccc3)nn4-c3ccccc3)cc2)CC1`, the CC50 in [1] came out at 15.1 µM. Further, the pIC50 with MCF7 [2] is 4.84; on CDK2/Cyclin A2, 6.79; with HepG2, 5.50. In data set [3], the selectivity ratio came out at 4.8.

On to `c1ccc(-c2nn(-c3ccccc3)c3nccc(-c4cccs4)c23)cc1`, for which the values for the pIC50 in the data set on MCF7 [2], on CDK2/Cyclin A2 and in the data set with HepG2 were 4.41, 7.25 and 4.41, respectively.

With `N#Cc1c(-c2ccccc2)nc2c(c(-c3ccccc3)nn2-c2ccccc2)c1-c1ccc(N2CCOCC2)cc1`, the pIC50 in the data set with MCF7 [2] was 5.48; against CDK2/Cyclin A2 it was 7.02; in the data set on HepG2, 4.98.

As for `Brc1ccc(-c2ccnc3c2c(-c2ccccc2)nn3-c2ccccc2)cc1`, the pIC50 was 4.88 in the data set on MCF7 [2], 7.09 against CDK2/Cyclin A2 and 4.30 with HepG2.

With `N#Cc1c(-c2ccc(Cl)cc2)nc2c(c(-c3ccccc3)nn2-c2ccccc2)c1-c1ccc(N2CCOCC2)cc1`, the pIC50 is 5.44 in the data set on MCF7 [2], 6.19 at CDK2/Cyclin A2 and 4.67 in the data set on HepG2.

For the molecule `COc1ccc(-c2ccnc3c2c(-c2ccccc2)nn3-c2ccccc2)cc1`, the negative logarithm of the IC50 (pIC50) is 4.54 in the data set on MCF7 [2], 6.57 on CDK2/Cyclin A2 and 5.18 with HepG2.

Consider `O=C(C=CNc1cc(-c2ccccc2)nn1-c1ccccc1)c1ccc(F)cc1`, for which the negative-log IC50 (pIC50) with MCF7 [2] was 5.04; on CDK2/Cyclin A2, 6.88; in the data set on HepG2, 4.22.

As to `CN1CCN(c2ccc(-c3c(C#N)c(-c4ccc(Cl)cc4)nc4c3c(-c3ccccc3)nn4-c3ccccc3)cc2)CC1`, the pIC50 in the data set with MCF7 [2] was 5.57; against CDK2/Cyclin A2, 6.89; in the data set on HepG2 it was 4.84.

As to `N#Cc1c(-c2ccccc2)nc2c(c(-c3ccccc3)nn2-c2ccccc2)c1-c1ccc(N2CCCCC2)cc1`, the pIC50 in the data set on MCF7 [2] was 4.57; against CDK2/Cyclin A2 it was 6.48; in the data set on HepG2, 4.51.

On to `COc1ccc(-c2nc3c(c(-c4ccccc4)nn3-c3ccccc3)c(-c3ccc(N4CCCCC4)cc3)c2C#N)cc1`, for which the pIC50 in the data set with MCF7 [2] was 5.56; against CDK2/Cyclin A2, 7.07; in the data set with HepG2, 4.90.

Turning to `c1ccc(-c2ccnc3c2c(-c2ccccc2)nn3-c2ccccc2)cc1`, the CC50 in data set [1] came out at 34.2 µM. Besides, the pIC50 is 4.55 in the data set with MCF7 [2], 6.46 at CDK2/Cyclin A2 and 5.49 with HepG2. Moreover, the selectivity ratio in data set [3] is 10.7.

Turning to `COc1cccc2c1C(=O)c1c(O)c3c(c(O)c1C2=O)C[C@@](O)(C(=O)CO)C[C@@H]3O[C@H]1C[C@H](N)[C@H](O)[C@H](C)O1` [DOXORUBICIN], the CC50 in [4] was 13.9 µM; in [1] it was 12.7 µM. Also, the pIC50 in the data set on MCF7 [2] is 5.73; with HepG2, 5.14.

In the case of `Cc1ccc(-c2ccnc3c2c(-c2ccccc2)nn3-c2ccccc2)cc1`, the values for the pIC50 in the data set on MCF7 [2], against CDK2/Cyclin A2 and in the data set with HepG2 were 5.25, 7.09 and 4.97, respectively.

In the case of `O=C(C=CNc1cc(-c2ccccc2)nn1-c1ccccc1)c1ccc(Cl)cc1`, the pIC50 in the data set on MCF7 [2] was 5.09; against CDK2/Cyclin A2 it was 6.91; with HepG2, 4.39.

For `O=C(C=CNc1cc(-c2ccccc2)nn1-c1ccccc1)c1ccc(Br)cc1`, the results for the pIC50 in the data set with MCF7 [2], against CDK2/Cyclin A2 and in the data set with HepG2 were 4.66, 6.29 and 5.06, respectively.

For `Clc1ccc(-c2ccnc3c2c(-c2ccccc2)nn3-c2ccccc2)cc1`, the values for the negative-log IC50 (pIC50) with MCF7 [2], against CDK2/Cyclin A2 and in the data set on HepG2 were 4.21, 6.41 and 4.21, respectively.

Consider `O=C(C=CNc1cc(-c2ccccc2)nn1-c1ccccc1)c1cccs1`, for which the CC50 in [1] was 19.9 µM. Also, the negative-log IC50 (pIC50) in the data set with MCF7 [2] is 4.81; against CDK2/Cyclin A2, 6.70; in the data set on HepG2 it was 5.62. In addition, the selectivity ratio in data set [3] came out at 8.22.

By pKi is commonly meant −log10 of the Ki, conventionally taken in molar units. Turning to `COc1ccc(C(=O)C=CNc2cc(-c3ccccc3)nn2-c2ccccc2)cc1`, the Activity came out at 37.29% in the data set on MCF7 [5]; 18.96 ng/mL in the data set with MCF7 [6]; 59.24% with MCF7 [7]; 3.47% with MCF7 [8]; 20.64% in the data set on MCF7 [11]; 2.69% in the data set on MCF7 [12]. Also, the Activity with MCF7 [13] and in the data set on MCF7 [14] was 36.51% each time. Moreover, the CC50 in data set [4] turned out to be 16.9 µM; in [1] it was 35.2 µM. The negative logarithm of the IC50 (pIC50) was 5.89 with MCF7 [2]; 6.49 in data set [9]; 4.78 in data set [10]; 6.02 in data set [15]; 7.38 on CDK2/Cyclin A2; 5.69 in the data set on HepG2. For the same molecule, the negative-log Ki (pKi) in data set [9] is 6.68; in data set [10], 5.04; in data set [15], 6.24; at CDK2/Cyclin A2, 7.60. Also, in the data set on MCF7 [16], the “fold change (FC)” value was 9. Further, the selectivity ratio was 13.1 in data set [17] and 17.3 in data set [3].

Regarding `COc1ccc(-c2nc3c(c(-c4ccccc4)nn3-c3ccccc3)c(-c3ccc(N4CCOCC4)cc3)c2C#N)cc1`, the Activity with MCF7 [5] was 44.38%; with MCF7 [6] it was 20.32 ng/mL; in the data set on MCF7 [7], 34.42%; in the data set with MCF7 [8] it was 21.2%; in the data set on MCF7 [11], 9.86%; in the data set on MCF7 [12] it was 9.36%. The figures for the Activity in the data set on MCF7 [13] and in the data set with MCF7 [14] were 24.4% and 24.36%, respectively. The CC50 in [4] amounted to 55.7 µM. Moreover, the pIC50 in the data set on MCF7 [2] is 6.03; in [9], 6.50; in data set [10], 4.67; in data set [15], 6.14; on CDK2/Cyclin A2, 6.66; in the data set on HepG2, 5.09. The pKi in data set [9] is 6.69; in data set [10], 4.94; in data set [15], 6.36; at CDK2/Cyclin A2 it was 6.88. Further, the “fold change (FC)” value in the data set on MCF7 [16] turned out to be 9. For the same molecule, in data set [17], the selectivity ratio was 59.9.

Consider `Cc1ccc(C(=O)C=CNc2cc(-c3ccccc3)nn2-c2ccccc2)cc1`, for which the pIC50 is 4.52 in the data set with MCF7 [2], 7.20 against CDK2/Cyclin A2 and 5.14 in the data set on HepG2.
